In brackets after ≈: the same amount, converted by molar mass.
Tests used:
Format in all cases: functional
[1] = tested on: P388; test: Concentration required to inhibit mouse P388 cell line growth by 50% at 72 hr continuous exposure; conditions: P388, 72 h
[2] = tested on: PC-6; test: Concentration required to inhibit human PC-6 cell line growth by 50% at 72 hr continuous exposure; conditions: PC-6, 72 h
[3] = tested on: PC-12; test: Concentration required to inhibit human PC-12 cell line growth by 50% at 72 hr continuous exposure; conditions: PC-12, 72 h
[4] = tested on: PC-6; test: Concentration required to inhibit human PC-6/VP1-1 cell line growth by 50% at 72 hr exposure; conditions: PC-6, 72 h
[5] = tested on: PC-6; test: Concentration required to inhibit human PC-6/VCR29-9 cell line growth by 50% at 72 hr exposure; conditions: PC-6, 72 h
[6] = tested on: PC-6; test: Concentration required to inhibit human PC-6/VCR29-9 cell line growth by 50% at 72 hr of exposure; conditions: PC-6, 72 h
[7] = tested on: B16; test: Effective dose of perorally administered compound against B16 melanoma BL6 cells implanted into mice; conditions: Mus musculus
[8] = tested on: B16; test: Effective dose of intravenously administered compound against B16 melanoma BL6 cells implanted into mice; conditions: Mus musculus, B16, iv
[9] = tested on: Mus musculus; test: Effective dose of perorally administered compound against B16 melanoma BL6 cells implanted into mice; range is 11.9-27.6; conditions: B16, po
[10] = tested on: PC-6; test: Concentration that inhibited the growth of PC-6/VCR29-9 cells by 50% at 72 hr continuous exposure; conditions: Homo sapiens, PC-6, 72 h

| SMILES | GI50 [1] | GI50 [2] | GI50 [3] | GI50 [4] | GI50 [5] | GI50 [6] | ED50 ([7]; B16, po) | ED50 [8] | ED50 [9] | ED50 [7] | GI50 [10] |
| --- | --- | --- | --- | --- | --- | --- | --- | --- | --- | --- | --- |
| CNC[C@@H]1O[C@@H]2C3=C(C)[C@@H](OC(=O)[C@H](O)[C@@H](NC(=O)OC(C)(C)C)c4ccccn4)C[C@@](O)([C@@H](OCc4ccccc4)[C@H]4[C@@](C)(CC[C@H]5OC[C@]54OC(C)=O)[C@@H]2O1)C3(C)C | 0.6 ng/mL (≈ 0.718 nM) | 0.54 ng/mL (≈ 0.646 nM) | 5.82 ng/mL (≈ 6.96 nM) | 265 ng/mL (≈ 317 nM) | 43.2 ng/mL (≈ 51.7 nM) |  |  |  |  |  |  |
| CC(=O)O[C@H]1C(=O)[C@@]2(C)[C@H]([C@H](OCc3ccccc3)[C@]3(O)C[C@H](OC(=O)[C@H](O)[C@@H](NC(=O)c4ccccc4)c4ccccc4)C(C)=C1C3(C)C)[C@]1(OC(C)=O)CO[C@@H]1C[C@@H]2O | 2.93 ng/mL (≈ 3.49 nM) | 1.27 ng/mL (≈ 1.51 nM) | 539 ng/mL (≈ 642 nM) | 1000 ng/mL (≈ 1190 nM) |  | 455 ng/mL (≈ 542 nM) |  |  |  |  |  |
| CC(=O)O[C@@]12CO[C@@H]1CC[C@@]1(C)[C@@H]3O[C@H](CN4CCOCC4)O[C@@H]3C3=C(C)[C@@H](OC(=O)[C@H](O)[C@@H](NC(=O)OC(C)(C)C)c4ccc(F)cn4)C[C@@](O)([C@@H](OCc4ccccc4)[C@@H]12)C3(C)C |  |  |  |  |  |  | 7.9 mg/kg | 3.5 mg/kg |  |  |  |
| CC(=O)O[C@@]12CO[C@@H]1CC[C@@]1(C)[C@@H]3O[C@H](CN(C)C)O[C@@H]3C3=C(C)[C@@H](OC(=O)[C@H](O)[C@@H](NC(=O)OC(C)(C)C)C(C)(C)C)C[C@@](O)([C@@H](OCc4ccccc4)[C@@H]12)C3(C)C | 0.73 ng/mL (≈ 0.881 nM) | 0.67 ng/mL (≈ 0.808 nM) | 0.5 ng/mL (≈ 0.603 nM) | 15.7 ng/mL (≈ 18.9 nM) | 1.42 ng/mL (≈ 1.71 nM) |  | 11.9 mg/kg | 11.9 mg/kg |  |  |  |

The next lines start with results.

| GI50 [1] | SMILES | GI50 [2] | GI50 [3] | GI50 [4] | GI50 [5] | GI50 [6] | ED50 ([7]; B16, po) | ED50 [8] | ED50 [9] | ED50 [7] | GI50 [10] |
| --- | --- | --- | --- | --- | --- | --- | --- | --- | --- | --- | --- |
| 0.56 ng/mL (≈ 0.639 nM) | CC(=O)O[C@@]12CO[C@@H]1CC[C@@]1(C)[C@@H]3O[C@H](CNC4CCC4)O[C@@H]3C3=C(C)[C@@H](OC(=O)[C@H](O)[C@@H](NC(=O)OC(C)(C)C)c4ccccn4)C[C@@](O)([C@@H](OCc4ccccc4)[C@@H]12)C3(C)C | 0.83 ng/mL (≈ 0.947 nM) | 1.45 ng/mL (≈ 1.66 nM) | 81.7 ng/mL (≈ 93.3 nM) | 4.88 ng/mL (≈ 5.57 nM) |  |  | 7.9 mg/kg | 27.6 mg/kg |  |  |
| 0.17 ng/mL (≈ 0.197 nM) | CC(=O)O[C@@]12CO[C@@H]1CC[C@@]1(C)[C@@H]3O[C@H](CNC4CC4)O[C@@H]3C3=C(C)[C@@H](OC(=O)[C@H](O)[C@@H](NC(=O)OC(C)(C)C)c4ccccn4)C[C@@](O)([C@@H](OCc4ccccc4)[C@@H]12)C3(C)C | 0.54 ng/mL (≈ 0.626 nM) | 0.3 ng/mL (≈ 0.348 nM) | 49.4 ng/mL (≈ 57.3 nM) | 2.22 ng/mL (≈ 2.58 nM) |  |  |  |  |  |  |
| 0.04 ng/mL (≈ 0.0445 nM) | CC(=O)O[C@@]12CO[C@@H]1CC[C@@]1(C)[C@@H]3O[C@H](CN4CCOCC4)O[C@@H]3C3=C(C)[C@@H](OC(=O)[C@H](O)[C@@H](NC(=O)OC(C)(C)C)c4cncs4)C[C@@](O)([C@@H](OCc4ccccc4)[C@@H]12)C3(C)C | 0.07 ng/mL (≈ 0.0779 nM) | 0.12 ng/mL (≈ 0.134 nM) | 20.5 ng/mL (≈ 22.8 nM) |  |  |  | 7.9 mg/kg |  | None | 0.66 ng/mL (≈ 0.735 nM) |
